In BigSolDB 2.1:

Cc1[nH]nc2cc([N+](=O)[O-])ccc12
solubility (mole fraction)
Conditions | in ethanol | in n-propanol | in water
278.15 K | 0.00471 | 0.0051 | 2.06e-05
283.15 K | 0.00539 | 0.00574 | 2.7e-05
288.15 K | 0.00619 | 0.00682 | 3.52e-05
293.15 K | 0.0073 | 0.00793 | 4.67e-05
298.15 K | 0.00866 | 0.00901 | 6.15e-05
303.15 K | 0.0102 | 0.0103 | 7.91e-05
308.15 K | 0.0118 | 0.0118 | 9.98e-05
313.15 K | 0.0137 | 0.0133 | 0.000123
318.15 K | 0.016 | 0.0149 | 0.000151
323.15 K | 0.019 | 0.017 | 0.000182
328.15 K | 0.022 | 0.0194 | 0.000222
